# Measured values published in patent publication US9409915B2, “Substituted aza-bicyclic imidazole derivatives useful as TRPM8 receptor modulators” (Janssen Pharmaceutica NV, priority 2010, dated 2016).
# Where a name gives a salt, the structure may show the parent alone. Read-outs that look alike come from different tables or passages of the source.
# Target: canine TRPM8 (Canis lupus familiaris, UniProt Q1A7N1)
# Assay: In vitro canine TRPM8 functional assay (Ca2+-sensitive fluorescent dye, icilin activation)
# Type: cell-based
# Experimental: The functional activity of representative compounds of the formula (I) of the present invention was quantified by measuring changes in intracellular calcium concentration using a Ca^2+-sensitive fluorescent dye. The changes in fluorescent signal were monitored by a fluorescence plate reader, either a FLIPR™ (Molecular Devices) or FDSS (Hamamatsu).
# HEK293 cells stably expressing canine TRPM8 were routinely grown as monolayers in Dulbecco's minimum essential medium supplemented with 10% FBS, 2 mM L-glutamine, 100 units/mL penicillin, 100 ug/mL streptomycin and 400 μg/mL G418. Cells were maintained in 5% CO2 at 37° C. At 24 hr prior to assay, cells were seeded in black wall, clear-base poly-D-lysine coated 384-well plates (BD Biosciences, NJ, USA) at a density of 5,000 cells per well in culture medium and grown overnight in 5% CO2 at 37° C. On assay day, growth media was removed, and cells were loaded with Calcium 3 Dye (Molecular Devices) for 35 min at 37° C., under 5% CO2 and then incubated for 25 min at room temperature and atmosphere. Subsequently, cells were tested for agonist-induced increases in intracellular Ca^2+ levels using FLIPR™ or FDSS. Cells were treated with compounds of the formula (I) at varying concentrations and intracellular Ca^2+ was measured for 5 min prior to the addition of icilin to each well to achieve a final concentration that produces an approximately 80% maximal response.
# Maximal fluorescence intensity (FI) achieved upon addition of icilin was exported from the FLIPR™ or FDSS software and further analyzed using GraphPad Prism 3.02 (Graph Pad Software Inc., CA, U.S.A.). Basal FI was subtracted prior to normalizing data to percent of maximal response. Curves were generated using the average of quadruplicate wells for each data point using nonlinear regression of either sigmoidal dose response or sigmoidal dose response (variable slope). Finally, the EC50 and IC50 values were calculated with the best-fit curve determined by GraphPad Prism
# [1] = 0.2 μM compound, HEK293 cells stably expressing canine TRPM8, icilin-induced Ca2+ response
# [2] = HEK293 cells stably expressing canine TRPM8, icilin-induced Ca2+ response, eight-point concentration-response
# [3] = HEK293, 0.2 μM compound, HEK293 cells stably expressing canine TRPM8, icilin-induced Ca2+ response
# Chain of canine TRPM8 (Q1A7N1 1-1104): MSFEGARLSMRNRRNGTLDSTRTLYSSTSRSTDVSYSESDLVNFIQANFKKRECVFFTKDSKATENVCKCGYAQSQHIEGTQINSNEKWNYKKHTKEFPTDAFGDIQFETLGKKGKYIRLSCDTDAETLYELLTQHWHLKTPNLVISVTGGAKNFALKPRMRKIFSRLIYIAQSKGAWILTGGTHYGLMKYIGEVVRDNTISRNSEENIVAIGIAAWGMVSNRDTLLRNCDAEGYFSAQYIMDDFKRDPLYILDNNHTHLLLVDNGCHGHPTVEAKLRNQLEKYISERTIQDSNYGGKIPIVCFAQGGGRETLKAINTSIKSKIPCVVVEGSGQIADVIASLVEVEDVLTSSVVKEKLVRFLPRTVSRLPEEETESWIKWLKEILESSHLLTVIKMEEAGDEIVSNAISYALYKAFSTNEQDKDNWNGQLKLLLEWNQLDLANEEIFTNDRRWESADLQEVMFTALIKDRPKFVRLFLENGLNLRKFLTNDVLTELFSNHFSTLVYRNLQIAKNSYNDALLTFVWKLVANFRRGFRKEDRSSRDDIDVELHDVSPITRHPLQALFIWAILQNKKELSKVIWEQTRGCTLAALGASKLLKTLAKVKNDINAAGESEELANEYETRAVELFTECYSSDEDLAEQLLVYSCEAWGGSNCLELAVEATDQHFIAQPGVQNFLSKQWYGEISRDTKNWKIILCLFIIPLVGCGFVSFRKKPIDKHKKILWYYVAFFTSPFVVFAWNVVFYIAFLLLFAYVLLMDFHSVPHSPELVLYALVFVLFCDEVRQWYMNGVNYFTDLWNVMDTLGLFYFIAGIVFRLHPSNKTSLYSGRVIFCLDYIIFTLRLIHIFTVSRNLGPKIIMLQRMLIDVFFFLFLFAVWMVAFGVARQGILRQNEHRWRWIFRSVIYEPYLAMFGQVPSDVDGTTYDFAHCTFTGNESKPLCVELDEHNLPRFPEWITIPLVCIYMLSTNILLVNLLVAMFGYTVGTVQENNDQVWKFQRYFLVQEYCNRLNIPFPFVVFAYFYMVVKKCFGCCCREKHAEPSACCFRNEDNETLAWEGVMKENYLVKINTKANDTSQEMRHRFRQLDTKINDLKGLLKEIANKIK
SMILES,inhibition at 0.2 µM [1] [%],IC50 [2] [nM],further results
"COc1c(C(C)(C)C)nn(C)c1-c1nc2cc(-c3ccccc3C(F)(F)F)nc(OC)c2[nH]1 [Compound 79, 2-(5-tert-Butyl-4-methoxy-2-methyl-2H-pyrazol-3-yl)-4-methoxy-6-(2-trifluoromethyl-phenyl)-3H-imidazo[4,5-c]pyridine methanesulfonic acid salt]",101,20,–
"CC(C)(C)c1cc(-c2nc3nc(-c4ccccc4F)ccc3[nH]2)on1 [Compound 30, 2-(3-tert-Butyl-isoxazol-5-yl)-5-(2-fluoro-phenyl)-1H-imidazo[4,5-b]pyridine]",87,87,–
"CC(C)Oc1nc(-c2ccccc2C(F)(F)F)cc2nc(-c3c(C#N)c(C(C)(C)C)nn3C)[nH]c12 [Compound 14, 3-tert-Butyl-5-[4-isopropoxy-6-(2-trifluoromethyl-phenyl)-3H-imidazo[4,5-c]pyridin-2-yl]-1-methyl-1H-pyrazole-4-carbonitrile benzenesulfonic acid salt]",99,1.2,–
"Cn1nc(C(C)(C)C)c(C#N)c1-c1nc2cc(-c3ccccc3C(F)(F)F)ncc2[nH]1 [Compound 45, 3-tert-Butyl-1-methyl-5-[6-(2-trifluoromethyl-phenyl)-3H-imidazo[4,5-c]pyridin-2-yl]1H-pyrazole-4-carbonitrile hydrochloride]",98,27,–
"Cn1nc(C(C)(C)C)cc1-c1nc2cc(-c3ccccc3OC(F)(F)F)ncc2[nH]1 [Compound 39, 2-(5-tert-Butyl-2-methyl-2H-pyrazol-3-yl)-6-(2-trifluoromethoxy-phenyl)-3H-imidazo[4,5-c]pyridine hydrochloride]",–,75,inhibition at 0.2 µM [3]: 69%
"Cn1nc(C(C)(C)C)c(Cl)c1-c1nc2cc(-c3ccccc3OC(F)(F)F)nc(OCC(F)(F)F)c2[nH]1 [Compound 90, 2-(5-tert-Butyl-4-chloro-2-methyl-2H-pyrazol-3-yl)-4-(2,2,2-trifluoro-ethoxy)-6-(2-trifluoromethoxyphenyl)-3H-imidazo[4,5-c]pyridine sodium salt]",99,0.73,–
"Cn1nc(C(C)(C)C)c(Cl)c1-c1nc2cc(-c3ccccc3C(F)(F)F)nc(OCC(F)(F)F)c2[nH]1 [Compound 19, 2-(5-tert-Butyl-4-chloro-2-methyl-2H-pyrazol-3-yl)-4-(2,2,2-trifluoroethoxy)-6-(2-trifluoromethyl-phenyl)-3H-imidazo[4,5-c]pyridine methanesulfonic acid salt]",100,0.84,–
"CC(C)(C)c1cc(-c2nc3nc(-c4ccccc4C(F)(F)F)ccc3[nH]2)on1 [Compound 31, 2-(3-tert-Butyl-isoxazol-5-yl)-5-(2-trifluoromethyl-phenyl)-1H-imidazo[4,5-b]pyridine]",100,18,–
"COc1nc(-c2ccccc2Cl)cc2nc(-c3c4c(nn3C)C3(CCCCC3)CC4)[nH]c12 [Compound 18, 2-(2-methyl-6,6-spirocyclohexyl-2,4,5,6-tetrahydro-cyclopenta-2H-pyrazol-3-yl)-4-methoxy-6-(2-chloro-phenyl)-3H-imidazo[4,5-c]pyridine]",–,–,% Inh @ 0.2 μM: 99%; IC50: 8.2 nM
"COc1nc(-c2ccccc2C(F)(F)F)cc2nc(-c3c(F)c(C(C)(C)C)nn3C)[nH]c12 [Compound 78, 2-(5-tert-Butyl-4-fluoro-2-methyl-2H-pyrazol-3-yl)-4-methoxy-6-(2-trifluoromethyl-phenyl)-3H-imidazo[4,5-c]pyridine methanesulfonic acid salt]",100,16,–
"Cn1nc(C(C)(C)C)c(C#N)c1-c1nc2cc(-c3ccccc3C(F)(F)F)nc(OCCO)c2[nH]1 [Compound 84, 3-tert-Butyl-5-[4-(2-hydroxy-ethoxy)-6-(2-trifluoromethyl-phenyl)-3H-imidazo[4,5-c]pyridin-2-yl]-1-methyl-1H-pyrazole-4-carbonitrile]",100,1.9,–
"CC(C)(C)c1cc(-c2nc3nc(-c4ccccc4OC(F)(F)F)ccc3[nH]2)on1 [Compound 29, 2-(3-tert-Butyl-isoxazole-5-yl)-5-(2-trifluoromethoxy-phenyl)-1H-imidazo[4,5-b]pyridine]",99,33,–
"Cn1nc(C(C)(C)C)c(Cl)c1-c1nc2cc(-c3ccccc3C(F)(F)F)nc(Cl)c2[nH]1 [Compound 71, 2-(5-tert-Butyl-4-chloro-2-methyl-2H-pyrazol-3-yl)-4-chloro-6-(2-trifluoromethyl-phenyl)-3H-imidazo[4,5-c]pyridine Hydrochloride]",100,8.8,–
"Cn1nc(C(C)(C)C)c(Cl)c1-c1nc2cc(-c3ccccc3Cl)nc(OCCN3CCOCC3)c2[nH]1 [Compound 54, 2-(5-tert-Butyl-4-chloro-2-methyl-2H-pyrazol-3-yl)-6-(2-chloro-phenyl)-4-(2-morpholin-4-yl-ethoxy)-3H-imidazo[4,5-c]pyridine]",99,4.2,–
"CC(C)(C)c1cc(-c2nc3nc(-c4ccccc4C(F)(F)F)cc(Cl)c3[nH]2)on1 [Compound 7, 2-(3-tert-Butyl-isoxazol-5-yl)-7-chloro-5-(2-trifluoromethyl-phenyl)-1H-imidazo[4,5-b]pyridine]",99,38,–
"Cn1nc(C(C)(C)C)c(Cl)c1-c1nc2cc(-c3ccccc3Cl)nc(OCC(=O)O)c2[nH]1 [Compound 87, [2-(5-tert-Butyl-4-chloro-2-methyl-2H-pyrazol-3-yl)-6-(2-chloro-phenyl)-3H-imidazo[4,5-c]pyridin-4-yloxy]-acetic acid]",–,131,inhibition at 0.2 µM [3]: 72%
"Cn1nc(C(C)(C)C)c(Cl)c1-c1nc2cc(-c3ccccc3C(F)(F)F)nc(OCCO)c2[nH]1 [Compound 57, 2-[2-(5-tert-Butyl-4-chloro-2-methyl-2H-pyrazol-3-yl)-6-(2-trifluoromethyl-phenyl)-3H-imidazo[4,5-c]pyridin-4-yloxy]-ethanol]",101,1.6,–
"Cc1nc(-c2ccccc2C(F)(F)F)nc2nc(-c3cc(C(C)(C)C)nn3C)[nH]c12 [Compound 35, 8-(5-tert-Butyl-2-methyl-2H-pyrazol-3-yl)-6-methyl-2-(2-trifluoromethyl-phenyl)-7H-purine trifluoroacetic acid salt]",67,–,–
"Cn1nc(C(C)(C)C)cc1-c1nc2nc(-c3ccccc3C(F)(F)F)cc(Cl)c2[nH]1 [Compound 6, 2-(5-tert-butyl-2-methyl-2H-pyrazol-3-yl)-7-chloro-5-(2-trifluoromethyl-phenyl)-1H-imidazo[4,5-b]pyridine sodium salt]",65,69,–
"CC(C)(C)c1cc(-c2nc3cc(-c4ccccc4C(F)(F)F)nc(Cl)c3[nH]2)on1 [Compound 73, 2-(3-tert-Butyl-isoxazol-5-yl)-4-chloro-6-(2-trifluoromethyl-phenyl)-3H-imidazo[4,5-c]pyridine hydrochloride]",100,28,–
"COCCOc1cc(-c2ccccc2C(F)(F)F)nc2nc(-c3c(Cl)c(C(C)(C)C)nn3C)[nH]c12 [Compound 76, 2-(5-tert-Butyl-4-chloro-2-methyl-2H-pyrazol-3-yl)-7-(2-methoxy-ethoxy)-5-(2-trifluoromethyl-phenyl)-1H-imidazo[4,5-b]pyridine methanesulfonic acid salt]",–,5.8,inhibition at 0.2 µM [3]: 98%
"Cn1nc(C(C)(C)C)c(Cl)c1-c1nc2cc(-c3ccccc3F)nc(OCC(F)(F)F)c2[nH]1 [Compound 91, 2-(5-tert-Butyl-4-chloro-2-methyl-2H-pyrazol-3-yl)-6-(2-fluorophenyl)-4-(2,2,2-trifluoroethoxy)-3H-imidazo[4,5-c]pyridine sodium salt]",99,3.8,–
"Cl.Cn1nc(C(C)(C)C)c(Cl)c1-c1nc2cc(-c3ccccc3F)ncc2[nH]1 [Compound 48, 2-(5-tert-Butyl-4-chloro-2-methyl-2H-pyrazol-3-yl)-6-(2-fluoro-phenyl)-3H-imidazo[4,5-c]pyridine hydrochloride]",–,–,"% Inh @ 0.2 μM (0.2 μM compound, HEK293 cells stably expressing canine TRPM8, icilin-induced Ca2+ response, hydrochloride): 59%"
"Cn1nc(C(C)(C)C)cc1-c1nc2nc(-c3ccccc3F)ccc2[nH]1 [Compound 36, 2-(5-tert-Butyl-2-methyl-2H-pyrazol-3-yl)-5-(2-fluoro-phenyl)-1H-imidazo[4,5-b]pyridine]",26,–,–
"Cn1nc(C(C)(C)C)c(C#N)c1-c1nc2cc(-c3ccccc3)ncc2[nH]1 [Compound 47, 3-tert-Butyl-1-methyl-5-(6-phenyl-3H-imidazo[4,5-c]pyridin-2-yl)-1H-pyrazole-4-carbonitrile hydrochloride]",56,–,–
